Key:
[1] = test system: patients with a recent major atherothrombotic cardiovascular event; assay: Clinical outcome study in high-risk patients for prevention of recurrent events; format: in vivo, human; settings: for annual absolute event rate lowered to: annual risk estimated approximately 7%
Method: The first clinical outcome study is performed in high-risk patients who have experienced a recent major atherothrombotic cardiovascular event (myocardial infarction or ischemic stroke) to investigate the preventive effect of Vorinostat treatment on the risk for recurrent events. The annual risk for a recurrent atherothrombotic event in the investigated population is estimated to approximately 7%. Patients are randomized in a parallel study design to receive double-blind oral treatment with 10 mg Vorinostat or placebo daily, in addition to optimal conventional treatment. The event rate is monitored by Kaplan-Meyer statistics. The primary efficacy endpoint is the composite measure of either mortality, or non-fatal myocardial infarction or ischemic stroke. The study is event-driven to a total of 180 events in the placebo group.
The first clinical outcome study is performed in high-risk patients who have experienced a recent major atherothrombotic cardiovascular event (myocardial infarction or ischemic stroke) to investigate the preventive effect of VPA treatment on the risk for recurrent events. Signs of a low-grade inflammatory condition is an inclusion criterion, defined as an elevated serum level of high-sensitivity C-reactive protein (hs-CRP) >3 mg/L. The annual risk for a recurrent atherothrombotic event in the investigated population is estimated to approximately 7%. Patients are randomized in a parallel study design to receive double-blind oral treatment with 100 mg valproic acid or placebo twice daily, in addition to optimal conventional treatment. The event rate is monitored by Kaplan-Meyer statistics. The primary efficacy endpoint is the composite measure of either mortality, or non-fatal myocardial infarction or ischemic stroke. The study is event-driven to a total of 180 events in the placebo group. […] Thus, this study confirms the clinical efficacy and feasibility of using VPA for secondary prevention of cardiovascular events.

[2] = test system: high-risk patients with recent deep vein thrombosis or pulmonary embolus; assay: Clinical outcome study for prevention of recurrent venous thromboembolic events; format: in vivo, human
Method: This study is performed in high-risk patients who have experienced a recent deep vein thrombosis or circulatory stable pulmonary embolus to investigate the preventive effect of Vorinostat treatment on the risk for recurrent venous thrombotic events. Patients with a cancer diagnosis who presents with a first episode of a proximal deep venous thrombosis without unstable pulmonary embolism will be included. The patients will receive conventional treatment (i.e warfarin for 3-6 months) and thereafter included in the study. Patients are randomized in a parallel study design to receive double-blind oral treatment with 10 mg Vorinostat or placebo daily, in addition to optimal conventional treatment. The event rate is monitored by Kaplan-Meyer statistics. The primary efficacy endpoint is the composite measure of either mortality, or recurrent deep venous thrombosis or pulmonary embolism. The study is event-driven to a total of 180 events in the placebo group. […] Thus, this study confirms the clinical efficacy and feasibility of using Vorinostat for secondary prevention of venous thromboembolism.
This study is performed in high-risk patients who have experienced a recent deep vein thrombosis or circulatory stable pulmonary embolus to investigate the preventive effect of VPA treatment on the risk for recurrent venous thrombotic events. Patients with a cancer diagnosis and low grade inflammation who present with a first episode of a proximal deep venous thrombosis without unstable pulmonary embolism are included. The patients receive conventional treatment (i.e warfarin for 3-6 months) and thereafter are included in the study. Patients are randomized in a parallel study design to receive double-blind oral treatment with 100 mg valproic acid or placebo twice daily, in addition to optimal conventional treatment. The event rate is monitored by Kaplan-Meyer statistics. The primary efficacy endpoint is the composite measure of either mortality, or recurrent deep venous thrombosis or pulmonary embolism. The study is event-driven to a total of 180 events in the placebo group. […] Thus, this study confirms the clinical efficacy and feasibility of using VPA for secondary prevention of venous thromboembolism.

[3] = test system: local release of t-PA from the endothelium; assay: Intermediate endpoint study: in vivo t-PA release in man (perfused-forearm model, Substance P); parameters: species or system human; settings: for increase of total amount of t-PA released (AUC): patients with stable angina pectoris, 2 weeks, daily oral dose: Vorinostat 10 mg, Belinostat 65 mg, Givinostat 2 mg, Panobinostat 0.5 mg, PCI-24781 2 mg, JNJ-26481585 0.2 mg, Mocetinostat 2 mg, SB939 0.4 mg, CXD101 10 mg
Method: (§1) The study comprises 16 patients with stable angina pectoris. Patients are investigated before and after oral treatment with 10 mg Vorinostat (Zolinza®, Merck & Co., Inc, NJ, USA) daily for 2 weeks. The study has a randomized, cross-over design and t-PA release capacity is investigated before and after treatment, with each individual serving as his/her own control
The capacity for t-PA release is investigated in the perfused-forearm model that we have developed, which is the only method that permits a direct measurement of the local release of t-PA from the endothelium (Hrafnkelsdottir, T., et al. Lancet 352, 1597-1598 (1998), Wall, U., et al. Blood 91, 529-537 (1998)). Since t-PA has a rapid hepatic clearance, it is impossible to infer endothelial release rates from plasma levels obtained from standard venous samples. With the invasive model, however, net forearm t-PA release rates are calculated from arterio-venous concentration gradients of t-PA after correction for forearm plasma flow. Acute t-PA release responses are induced by intra-arterial infusions of Substance P (Bachem, Bubendorf, Switzerland), and the amount and protein secretion profile is used as a measure of t-PA release capacity.
as §1, with “pectoris and elevated serum levels of high-sensitivity C-reactive protein (hs-CRP) >3 mg/L.” for “pectoris.”, “100” for “10”, “valproic acid twice” for “Vorinostat (Zolinza®, Merck & Co., Inc, NJ, USA)”, “control.” for “control”
The capacity for t-PA release is investigated in the perfused-forearm model that we have developed, which is the only method that permit a direct measurement of the local release of t-PA from the endothelium (Hrafnkelsdottir, T., et al. Lancet 352, 1597-1598 (1998), Wall, U., et al. Blood 91, 529-537 (1998). Since t-PA has a rapid hepatic clearance, it is impossible to infer endothelial release rates from plasma levels obtained from standard venous samples.
With the invasive model, however, net forearm t-PA release rates are calculated from arterio-venous concentration gradients of t-PA after correction for forearm plasma flow. Acute t-PA release responses are induced by intra-arterial infusions of Substance P (Bachem, Bubendorf, Switzerland), and the amount and protein secretion profile is used as a measure of t-PA release capacity.

[4] = doses as for risk reduction (Vorinostat 10 mg, Belinostat 65 mg, Givinostat 2 mg, Panobinostat 0.5 mg, PCI-24781 2 mg, JNJ-26481585 0.2 mg, Mocetinostat 2 mg, SB939 0.4 mg, CXD101 10 mg daily)
[5] = long-term, daily oral dose: Vorinostat 10 mg, Belinostat 65 mg, Givinostat 2 mg, Panobinostat 0.5 mg, PCI-24781 2 mg, JNJ-26481585 0.2 mg, Mocetinostat 2 mg, SB939 0.4 mg, CXD101 10 mg
[6] = daily oral dose: Vorinostat 10 mg, Givinostat 2 mg, Panobinostat 0.5 mg, PCI-24781 2 mg, JNJ-26481585 0.2 mg, Mocetinostat 2 mg, SB939 0.4 mg, CXD101 10 mg, Belinostat example prints 10 mg Vorinostat
[7] = hs-CRP >3 mg/L, 100 mg valproic acid orally twice daily

SMILES	annual absolute event rate lowered to [1, 4]	reduction of risk for recurrent atherothrombotic events, in addition to conventional therapy [1, 5]	reduction of risk for recurrent venous thrombotic events, in addition to conventional therapy [2, 6]	increase of total amount of t-PA released (AUC) [3]	reduction of risk for recurrent atherothrombotic events, in addition to conventional therapy [1, 7]	annual absolute event rate lowered to [1, 7]	reduction of risk for recurrent venous thrombotic events, in addition to conventional therapy ([2]; cancer diagnosis and low grade inflammation, 100 mg valproic acid orally twice daily)	increase of total amount of t-PA released ([3]; stable angina pectoris and hs-CRP >3 mg/L, 100 mg valproic acid orally twice daily for 2 weeks)
O=C(/C=C/c1cccc(S(=O)(=O)Nc2ccccc2)c1)NO [Belinostat]	approximately 5%	approximately 30%	approximately 30%	approximately 50%				
Cc1nn(C)cc1CN1CCC(c2ccc(C(=O)Nc3ccccc3N)cc2)CC1 [CXD101]	approximately 5%	approximately 30%	approximately 30%	approximately 50%				
CCN(CC)Cc1ccc2cc(COC(=O)Nc3ccc(C(=O)NO)cc3)ccc2c1.Cl [Givinostat]	approximately 5%	approximately 30%	approximately 30%	approximately 50%				
Cn1cc(CNCC2CCN(c3ncc(C(=O)NO)cn3)CC2)c2ccccc21 [JNJ-26481585, N-hydroxy-2-(4-((((1-methyl-1H-indol-3-yl)methyl)amino)methyl)piperidin-1-yl)pyrimidine-5-carboxamide]	approximately 5%	approximately 30%	approximately 30%	approximately 50%				
Nc1ccccc1NC(=O)c1ccc(CNc2nccc(-c3cccnc3)n2)cc1 [Mocetinostat]	approximately 5%	approximately 30%	approximately 30%	approximately 50%				
CN(C)Cc1c(C(=O)NCCOc2ccc(C(=O)NO)cc2)oc2ccccc12 [PCI-24781, 3-(dimethylaminomethyl)-N-[2-[4-(hydroxycarbamoyl)phenoxy]ethyl]-1-benzofuran-2-carboxamide]	approximately 5%	approximately 30%	approximately 30%	approximately 50%				
CCCC(CCC)C(=O)O [VPA, valproic acid]					approximately 30%	approximately 5%	approximately 30%	approximately 50%
O=C(CCCCCCC(=O)Nc1ccccc1)NO [Vorinostat]	approximately 5%	approximately 30%	approximately 30%	approximately 50%				

Source: patent US20230094176A1, “COMPOUNDS AND METHODS FOR IMPROVING IMPAIRED ENDOGENOUS FIBRINOLYSIS USING HISTONE DEACETYLASE INHIBITORS” (Cereno Scientific AB, priority 2011, published 2023)
